This is an account of results in ChEMBL document CHEMBL1201862, “PubChem BioAssay data set” (2004).

Active and inactive are the calls of the source.

Broadly, the IC50 is the concentration that inhibits the measured activity by half. For orientation: EC50 means the concentration that produces a half-maximal response. What is called CC50 is the concentration giving 50% cytotoxicity. For orientation: AC50 means the midpoint of the concentration-response curve, whichever way the signal moves.

The target in assay [1] is Mitogen-activated protein kinase 10 (Homo sapiens, UniProt P53779). Kind of assay: Dose response biochemical screening assay for inhibitors of c-Jun N-Terminal Kinase 3 (JNK3). [Related pubchem assays: 746 ].
The nature of assay [2]: Luminescent dose response cell-based high throughput screening assay for inhibitors of the Janus kinase 2 mutant JAK2V617F. [Related pubchem assays: 1446 (Primary screen.), 1521 (Confirmation assay.), 1486 (Counter screen.)]. It is filed as functional.
A short description of assay [3]: Luminescence Cell-Based Dose Confirmation HTS to Identify Activators of 5'UTR Stem-Loop Driven Alpha-Synuclein mRNA Translation in H4 Neuroglioblastoma Cells. [Related pubchem assays: 1829 (Project Summary), 1814 (Primary HTS)]. It counts as functional.
A short description of assay [4]: Luminescence Cell-Based Dose Response HTS to Identify Activators of Luciferase Translation or Activity in H4 […] Cells. [Related pubchem assays: 1829 (Project Summary), 1814 (Primary HTS)]. It counts as functional.
The test system of a further assay is H4. In words: Luminescence Cell-Based Dose Response HTS to Identify Activators of 5'UTR Stem-Loop Driven Prion Protein mRNA Translation in H4 Neuroglioblastoma Cells. [Related pubchem assays: 1829 (Project Summary), 1814 (Primary HTS)]. It counts as functional. The settings on record: Homo sapiens.
Assay [5] concerns Vero. In words: mammalian cell viability reduction – secondary assay, cytotoxicity control for West Nile virus antiviral project, dose response (AID 1650). It is filed as functional. The settings on record: Chlorocebus sabaeus.
The test system of assay [6] is Vero. Kind of assay: inhibition of WNV-induced cytopathic effect – cell-based, CPE readout (AID 1621). It is filed as functional. As to conditions: Chlorocebus sabaeus. A general note: Damage to the host cells serves as the signal in cytopathic effect assays.
The target of assay [7] is T1, Ubiquitin-conjugating enzyme E2 N (Homo sapiens, UniProt P61088).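 Note: Dose-response confirmation in a TR-FRET assay detecting UBC13-driven polyubiquitin chain formation, inhibition measured.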
T1 sequence (P61088 whole entry): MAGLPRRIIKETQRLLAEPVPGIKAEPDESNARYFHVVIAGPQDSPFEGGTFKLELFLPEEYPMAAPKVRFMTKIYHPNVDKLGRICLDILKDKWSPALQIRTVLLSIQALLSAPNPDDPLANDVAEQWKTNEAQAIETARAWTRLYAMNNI
It is filed as functional.

Assay [8] deals with T2, Microphthalmia-associated transcription factor (Homo sapiens, UniProt O75030).
T2 sequence (O75030 whole entry): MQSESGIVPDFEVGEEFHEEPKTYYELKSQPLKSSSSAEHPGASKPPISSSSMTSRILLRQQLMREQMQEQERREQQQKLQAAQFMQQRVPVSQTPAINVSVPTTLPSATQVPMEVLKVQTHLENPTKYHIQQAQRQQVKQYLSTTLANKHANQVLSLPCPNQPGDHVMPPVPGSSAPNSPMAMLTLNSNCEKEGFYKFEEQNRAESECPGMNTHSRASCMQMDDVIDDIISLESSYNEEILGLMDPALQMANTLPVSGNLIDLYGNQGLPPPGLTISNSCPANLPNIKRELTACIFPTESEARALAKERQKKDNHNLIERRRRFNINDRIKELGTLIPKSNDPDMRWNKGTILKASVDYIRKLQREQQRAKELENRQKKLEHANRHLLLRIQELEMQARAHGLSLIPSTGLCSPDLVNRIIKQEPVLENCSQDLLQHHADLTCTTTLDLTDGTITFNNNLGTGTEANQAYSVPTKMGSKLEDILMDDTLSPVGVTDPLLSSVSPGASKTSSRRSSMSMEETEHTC
Kind of assay: reducers of TRPM1 reporter luminescence, concentration series – cell-based, SK-MEL-5, cherry-picked, set 3, MITF inhibitor project, dose response (AID 493073).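 Note: SK-MEL-5 melanoma cells with luciferase driven by the MITF target TRPM1 promoter.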 It is filed as functional.

Assay [9] is described as follows: viability inhibitors of stage V gametocytes – luminescence, dose response (AID 1117278).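 Note: gametocytes exposed to compound for 24 hours.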 It is filed as functional, cell-based.
Assay [10] is described as follows: viability loss in human Jurkat cells – cell-based, luminescence, cytotoxicity control for P. falciparum gametocyte viability project, dose response (AID 1117277).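 Note: potency reflects loss of cellular ATP meaning fewer viable cells.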 It is filed as functional.
The target of another assay is Protein Tat (Human immunodeficiency virus type 1 group M subtype B (isolate HXB2)(HIV-1), UniProt P04608). It counts as functional.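 Note: tat binding to TAR RNA read out by fluorescence polarization.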
Assay [11] has as its system BJ. In words: BJ-TERT fibroblast viability loss – cell-based, RAS-independent, luminescence, dose response (AID 1933). It counts as functional, Homo sapiens. The settings on record: Homo sapiens, BJ.
Assay [12] deals with BJ. Kind of assay: cells. It is filed as functional, cell-based, Homo sapiens. As to conditions: Homo sapiens, BJ.
The next assay deals with Large T antigen (Simian virus 40, UniProt P03070). It counts as functional, Betapolyomavirus macacae.
Assay [13] relates to BJ. In words: BJ-TERT-LT-ST fibroblast viability loss – cell-based, RAS-independent, luminescence, dose response (AID 1935).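 Note: BJ fibroblasts immortalized with TERT plus LT and ST oncogenes.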 It counts as functional, Homo sapiens. The settings on record: Homo sapiens, BJ.
The nature of assay [14]: DRD fibroblast viability loss – cell-based, non-viral oncogenic, luminescence, dose response (AID 1934). As to conditions: Homo sapiens. It is filed as functional.
The target in assay [15] is Neurotensin receptor type 1 (Homo sapiens, UniProt P30989). It is filed as functional.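 Note: Image-based confirmatory dose-response assay measuring agonist activity at NTR1; NTR1-expressing U2OS osteosarcoma cells imaged for beta-arrestin GFP spot formation; agonist potency where compounds increase beta-arrestin recruitment.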
Assay [16] in a line: viability loss in THP-1 monocytes – THP-1 cells, cytotoxicity control for Vif-APOBEC3G degradation inhibitor project, dose response (AID 1117359). It is filed as functional. As to conditions: THP-1.
The target in assay [17] is T3, RNA-binding protein pos-1 (Caenorhabditis elegans, UniProt G5EF15).
T3 sequence (G5EF15 whole entry): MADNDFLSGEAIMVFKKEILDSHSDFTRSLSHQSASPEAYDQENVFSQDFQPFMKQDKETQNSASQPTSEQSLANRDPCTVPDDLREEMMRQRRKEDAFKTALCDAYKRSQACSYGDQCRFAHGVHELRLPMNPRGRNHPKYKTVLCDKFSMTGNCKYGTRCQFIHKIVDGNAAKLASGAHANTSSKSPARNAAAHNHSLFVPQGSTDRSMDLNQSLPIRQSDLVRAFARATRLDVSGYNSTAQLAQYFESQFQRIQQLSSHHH
In words: disruptors of C. elegans POS-1 RNA interaction – biochemical, fluorescence polarization, dose response (AID 1964).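 Note: purified POS-1 fused to maltose binding protein made in E. coli; potency of compounds blocking POS-1 binding to fluorescent RNA.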 For orientation: Fluorescence polarisation rises when a labelled molecule tumbles more slowly, as on binding a larger partner.

Assay [18] concerns the target T4, Zinc finger protein mex-5 (Caenorhabditis elegans, UniProt Q9XUB2).
T4 sequence (Q9XUB2 whole entry): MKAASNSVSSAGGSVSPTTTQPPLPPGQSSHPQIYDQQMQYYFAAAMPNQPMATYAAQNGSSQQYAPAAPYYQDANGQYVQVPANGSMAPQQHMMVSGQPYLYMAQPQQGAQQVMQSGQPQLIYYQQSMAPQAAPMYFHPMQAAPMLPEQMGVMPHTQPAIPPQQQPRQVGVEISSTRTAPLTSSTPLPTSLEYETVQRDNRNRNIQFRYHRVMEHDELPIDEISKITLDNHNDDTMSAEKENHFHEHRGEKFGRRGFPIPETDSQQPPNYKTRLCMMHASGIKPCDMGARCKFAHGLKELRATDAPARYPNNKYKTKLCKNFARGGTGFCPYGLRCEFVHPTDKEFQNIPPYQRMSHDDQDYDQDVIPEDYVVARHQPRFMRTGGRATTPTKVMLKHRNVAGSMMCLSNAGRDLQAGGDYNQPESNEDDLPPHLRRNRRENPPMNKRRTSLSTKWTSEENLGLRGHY
In words: potency of MEX-5 RNA-binding blockers – biochemical, C. elegans, fluorescence polarization, dose response (AID 1960).

The target in another assay is Genome polyprotein (dengue virus type 2, UniProt P29990). In words: flavivirus cap methylation enzyme inhibition – biochemical, confirmation dose response, primary screen (AID 588689). It counts as functional.
Chain of Genome polyprotein (P29990 2492-3391 limits assumed): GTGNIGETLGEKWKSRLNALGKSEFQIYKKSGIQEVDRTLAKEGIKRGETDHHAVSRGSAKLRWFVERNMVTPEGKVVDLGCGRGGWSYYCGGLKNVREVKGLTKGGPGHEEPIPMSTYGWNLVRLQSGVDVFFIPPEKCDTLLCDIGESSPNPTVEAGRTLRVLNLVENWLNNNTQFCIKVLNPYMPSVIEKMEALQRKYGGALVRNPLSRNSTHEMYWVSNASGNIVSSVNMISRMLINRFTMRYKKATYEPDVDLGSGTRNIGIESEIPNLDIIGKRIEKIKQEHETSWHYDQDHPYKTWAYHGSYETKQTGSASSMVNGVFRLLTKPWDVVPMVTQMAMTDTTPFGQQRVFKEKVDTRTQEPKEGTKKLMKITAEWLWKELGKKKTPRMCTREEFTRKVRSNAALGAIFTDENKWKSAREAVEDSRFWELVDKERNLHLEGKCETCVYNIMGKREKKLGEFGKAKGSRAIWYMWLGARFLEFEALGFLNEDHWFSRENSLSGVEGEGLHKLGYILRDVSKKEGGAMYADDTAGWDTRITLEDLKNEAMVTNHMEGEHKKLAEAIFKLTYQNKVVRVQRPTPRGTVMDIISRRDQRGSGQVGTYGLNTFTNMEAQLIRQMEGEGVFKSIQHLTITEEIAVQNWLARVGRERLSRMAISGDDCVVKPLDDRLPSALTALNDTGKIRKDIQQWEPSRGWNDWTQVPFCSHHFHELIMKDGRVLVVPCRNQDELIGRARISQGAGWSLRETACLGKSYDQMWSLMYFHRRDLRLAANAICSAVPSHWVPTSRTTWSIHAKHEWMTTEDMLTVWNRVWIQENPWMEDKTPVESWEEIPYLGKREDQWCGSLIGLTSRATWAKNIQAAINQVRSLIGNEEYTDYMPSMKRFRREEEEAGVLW

Chain of Mitogen-activated protein kinase 10 (P53779 whole entry): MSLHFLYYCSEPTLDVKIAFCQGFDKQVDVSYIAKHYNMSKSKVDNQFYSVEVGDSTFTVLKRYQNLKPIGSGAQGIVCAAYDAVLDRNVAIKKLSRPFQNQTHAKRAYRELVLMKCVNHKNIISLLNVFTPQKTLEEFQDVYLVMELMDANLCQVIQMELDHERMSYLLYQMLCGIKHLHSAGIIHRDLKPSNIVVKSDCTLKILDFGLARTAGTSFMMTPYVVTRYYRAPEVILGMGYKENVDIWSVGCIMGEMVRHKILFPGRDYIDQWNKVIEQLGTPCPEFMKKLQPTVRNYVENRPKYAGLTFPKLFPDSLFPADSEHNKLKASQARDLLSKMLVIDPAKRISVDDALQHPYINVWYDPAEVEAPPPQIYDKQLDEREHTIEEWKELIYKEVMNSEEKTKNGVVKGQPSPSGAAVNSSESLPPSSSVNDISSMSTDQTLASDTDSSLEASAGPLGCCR
Chain of Neurotensin receptor type 1 (P30989 whole entry): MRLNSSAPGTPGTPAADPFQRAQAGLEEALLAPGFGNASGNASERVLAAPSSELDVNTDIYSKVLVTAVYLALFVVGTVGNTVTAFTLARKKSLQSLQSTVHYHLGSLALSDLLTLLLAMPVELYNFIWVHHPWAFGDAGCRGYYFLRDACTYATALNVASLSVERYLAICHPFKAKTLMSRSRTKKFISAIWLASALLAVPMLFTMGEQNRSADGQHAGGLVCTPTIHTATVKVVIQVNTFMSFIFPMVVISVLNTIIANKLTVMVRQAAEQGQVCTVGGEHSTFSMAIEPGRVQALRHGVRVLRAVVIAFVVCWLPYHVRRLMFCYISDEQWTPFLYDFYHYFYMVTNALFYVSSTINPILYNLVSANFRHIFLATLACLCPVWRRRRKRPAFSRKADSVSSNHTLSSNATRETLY
Chain of Large T antigen (P03070 whole entry): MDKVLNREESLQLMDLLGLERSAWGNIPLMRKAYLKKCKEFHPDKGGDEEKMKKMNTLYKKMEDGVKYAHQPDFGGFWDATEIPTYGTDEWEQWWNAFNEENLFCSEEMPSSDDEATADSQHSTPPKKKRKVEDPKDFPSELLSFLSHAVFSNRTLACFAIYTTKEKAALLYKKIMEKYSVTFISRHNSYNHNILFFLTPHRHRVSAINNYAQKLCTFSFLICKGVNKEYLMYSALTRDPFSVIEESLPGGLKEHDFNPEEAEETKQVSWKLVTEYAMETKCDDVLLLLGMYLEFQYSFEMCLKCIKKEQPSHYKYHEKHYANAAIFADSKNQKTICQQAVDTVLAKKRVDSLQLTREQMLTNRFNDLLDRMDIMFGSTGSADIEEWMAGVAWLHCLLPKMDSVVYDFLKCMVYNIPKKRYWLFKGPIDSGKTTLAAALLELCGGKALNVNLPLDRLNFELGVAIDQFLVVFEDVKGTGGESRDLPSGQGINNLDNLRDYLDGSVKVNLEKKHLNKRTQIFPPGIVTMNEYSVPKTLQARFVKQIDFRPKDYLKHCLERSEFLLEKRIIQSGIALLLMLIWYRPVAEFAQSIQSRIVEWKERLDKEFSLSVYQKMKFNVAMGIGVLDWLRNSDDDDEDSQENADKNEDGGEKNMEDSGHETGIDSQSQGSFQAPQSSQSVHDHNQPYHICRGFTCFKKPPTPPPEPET
Chain of Protein Tat (P04608 whole entry): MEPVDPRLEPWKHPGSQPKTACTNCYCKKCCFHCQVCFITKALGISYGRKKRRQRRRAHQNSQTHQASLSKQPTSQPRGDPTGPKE

For the molecule `O=C(Cn1cnc2ccccc2c1=O)Nc1ccc(-c2nnc3n2CCCCC3)cc1`, the IC50 in assay [1] is given as 29.5 µM (not active).
`CC(C)C1C(C#N)=C(N)Oc2[nH]nc(-c3ccc4ccccc4c3)c21` (centres undefined): the IC50 in assay [2] is 2.41 µM (active).
In the case of `CCCCN(CC)CCCNC(=O)c1cc2c(=O)n(CC)c3ccccc3c2s1`, the concentration for a half-maximal effect (EC50) is 73.6 µM (active) in [3], 13.6 µM (active) in [4] and 11.7 µM (active) in the assay with H4. The 50% cytotoxic concentration (CC50) in the assay with Vero [5] is 24.3 µM (active). For the same molecule, the half-inhibitory concentration (IC50) in the assay on Vero [6] was 22.7 µM (active); in assay [7], > 20 µM (inactive). In addition, the concentration at half-maximal activity (AC50) in [8] was 21.6 µM (active).
On to `CC(=O)c1cccc(CN2CCN(C3CCCCC3)C(CCO)C2)c1` (centres undefined), for which the results for the IC50 in assay [9] and in assay [10] were > 109 µM (inactive) and > 83.3 µM (inactive), respectively.
For `Cc1occc1-c1nnc(SCC(=O)N2CCN(c3ccccc3)CC2)n1C`, the IC50 on Protein Tat is > 100 µM (active).
With `Cc1ccc(C)c(N2CCN(C(=O)Cc3ccc(-n4c(=O)[nH]c5ccsc5c4=O)cc3)CC2)c1`, the IC50 was > 109 µM (inactive) in assay [9] and > 83.2 µM (inactive) in assay [10].
Consider `O=C1NC(=O)N(c2ccccc2)C(=O)/C1=C\C=C\c1ccccc1`, for which the EC50 is > 120 µM (not active) in assay [3]; 8.73 µM (active) in assay [4]; 2.79 µM (inconclusive) in the assay with BJ [11]; > 120 µM (not active) in the assay on H4; > 150 µM (inconclusive) with BJ [12]; 4.12 µM (inconclusive) in the assay on BJ [13]. Further, the figures for the EC50 in [14] and in assay [15] were 4.66 µM (inconclusive) and 15.1 µM (active), respectively. Moreover, the IC50 on Large T antigen is 95.6 µM (active). In addition, the CC50 in assay [16] is 13 µM (active).
As to `COc1cc(C(c2c(C(=O)O)[nH]c3ccccc23)c2c(C(=O)O)[nH]c3ccccc23)ccc1OCc1ccccc1`, the concentration giving a half-maximal response (EC50) in [17] is 47.7 µM (active); in [18], 24.5 µM (active). In addition, on Genome polyprotein, the half-inhibitory concentration (IC50) was 16 µM (active). Besides, the half-maximal activity concentration (AC50) in the assay “cells” is 7.4 µM (active).
As for `CCN1CCN(CCCNC(=O)C2CCCN(c3nc4c(C)cc(C)cc4s3)C2)CC1` (centres undefined), the IC50 in the assay with Vero [6] is 24.8 µM (active).
